The values below come from patent publication US10000456B2, “Polycyclic compounds as lysophosphatidic acid receptor antagonists” (AMIRA PHARMACEUTICALS, INC., priority 2009, dated 2018).

Bounds are passed on as bounds.

Assay [1] has as its system bleomycin-induced lung fibrosis. Kind of assay: Bleomycin-induced lung fibrosis model in mice. The assay is classed as in vivo. To be noted: acute setting (3 day). The source says:
Female C57Bl/6 mice (Harlan, 25-30 g) are housed 4 per cage, given free access to food and water and allowed to acclimate for at least 7 days prior to test initiation. After the habituation phase, mice are lightly anesthetized with isoflurane (5% in 100% O2) and administered with bleomycin sulfate (0.01-5 U/kg, Henry Schein) via intratracheal instillation (Cuzzocrea, S. et al., Am. J. Physiol. Lung. Cell. Mol. Physiol., 292(5):[…]-[…] (Epub Jan. 12, 2007)). Mice are returned to their cages and monitored daily for the duration of the experiment. Test compound or vehicle is delivered p.o., i.p. or s.c. daily. The route and frequency of dosing is based on previously determined pharmacokinetic properties. […] BALF is analyzed for concentrations of inflammatory, pro-fibrotic and tissue injury biomarkers including transforming growth factor 131, hyaluronic acid, tissue inhibitor of metalloproteinase-1, matrix matelloproteinase-7, connective tissue growth factor and lactate dehydrogenase activity, using commercially available ELISA. […] Total cell counts are then obtained using a HEMAVET® hematology system (Drew Scientific, Wayne, Pa.) and differential cells counts are determined using Shandon cytospin (Thermo Scientific, Waltham, Mass.). […] The data are plotted using GraphPad Prism and statistical differences between groups determined.

Assay [2] has as its system A2058 human melanoma cells. Description: LPA1 chemotaxis assay. The assay is classed as cell-based. The following applies: LPA 100 nM, read-out: IC50, inhibition of LPA-driven chemotaxis. On the procedure: Chemotaxis of the A2058 human melanoma cells was measured using the Neuroprobe CHEMOTX® System plates ([…], 5.7 mm diameter sites). The filter sites were coated with 0.001% fibronectin (Sigma) in 20 mM Hepes, pH 7.4 and allowed to dry. A2058 cells were serum-starved for 24 hours, then harvested with Cell Stripper and resuspended in DMEM containing 0.1% fatty-acid-free bovine serum albumin (BSA) to a concentration of 1×10^6/ml. Cells were mixed with an equal volume of test compound (2×) in DMEM containing 0.1% fatty-acid-free BSA and incubated at 37° C. for 15 minutes. LPA (100 nM in DMEM containing 0.1% fatty-acid-free BSA) or vehicle was added to each well of the lower chamber and 50 μl of the cell suspension/test compound mix was applied to the upper portion of the CHEMOTX® plate. Plates were incubated at 37° C. for three hours and then the cells removed from the upper portion by rinsing with PBS and scraping. The filter was dried then stained with HEMA 3® Staining System (Fisher Scientific). The absorbance of the filter was read at 590 nm and IC50s were determined using SYMYX® Assay Explorer.

In a further assay the target is T1, human LPA1 (Homo sapiens, UniProt Q92633).
T1 construct: the full-length cDNA for human LPA1 was obtained by PCR of the reverse transcription reaction; expressed in transfected cells
T1 sequence (Q92633 whole entry): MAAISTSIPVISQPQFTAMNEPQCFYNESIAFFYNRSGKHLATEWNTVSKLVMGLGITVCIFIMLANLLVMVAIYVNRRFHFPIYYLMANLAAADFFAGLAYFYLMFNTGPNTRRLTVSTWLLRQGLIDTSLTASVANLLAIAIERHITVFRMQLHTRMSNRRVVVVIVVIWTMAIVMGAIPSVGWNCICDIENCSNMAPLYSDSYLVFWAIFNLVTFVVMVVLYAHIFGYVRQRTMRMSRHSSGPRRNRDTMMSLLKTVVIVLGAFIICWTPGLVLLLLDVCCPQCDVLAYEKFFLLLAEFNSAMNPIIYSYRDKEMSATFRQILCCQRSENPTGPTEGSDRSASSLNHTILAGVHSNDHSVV
Kind of assay: LPA1 calcium flux assay (HLPA1 Ca Flux). The assay is classed as cell-based. To be noted: CHO cells expressing human LPA1, stimulated with 10 nM LPA. On the procedure:
A 1.1 kb cDNA encoding the human LPA1 receptor was cloned from human lung. Human lung RNA (Clontech Laboratories, Inc. USA) was reverse transcribed using the RETROSCRIPT® kit (Ambion, Inc.) and the full-length cDNA for human LPA1 was obtained by PCR of the reverse transcription reaction. The nucleotide sequence of the cloned human LPA1 was determined by sequencing and confirmed to be identical to the published human LPA1 sequence (An et al., Biochem. Biophys. Res. Commun., 231:619 (1997). The cDNA was cloned into the pcDNA5/FRT expression plasmid and transfected in CHO cells using Lipofectamine 2000 (Invitrogen Corp., USA). Clones stably expressing human LPA1 were selected using hygromycin and identified as cells that show Ca-influx in response to LPA.
Human LPA1 or LPA3 expressing CHO cells are seeded at 20,000-45,000 cells per well in a 96-well poly-D-lysine coated plate one or two days before the assay. Prior to the assay, the cells are washed once with PBS and then cultured in serum-free media overnight. […] Cells are the stimulated by the addition of 10 nM LPA and intracellular Ca^2+ measured using the FLEXSTATION® 3 (Molecular Devices). IC50s are determined using GraphPad prism analysis of drug titration curves.
On the technique in general: Calcium assays in cells follow changes in intracellular calcium, usually with a dye or a luminescent sensor.

The test system of assay [3] is highly peritoneal metastatic pancreatic cancer cell line. To be noted: cited from earlier work.
The test system of another assay is renal fibrosis. To be noted: compared with LPA1 (−/−) mice; cited from earlier work.

Take `Cc1noc(-c2ccc(-c3ccc(C4(C(=O)O)CC4)cc3)cc2)c1C(O)c1cn(Cc2ccccc2)nn1` (single isomer, unassigned) [Compound 19, 1-(4′-{4-[(1-Benzyl-1H-[1,2,3]triazol-4-yl)-hydroxy-methyl]-3-methyl-isoxazol-5-yl}-biphenyl-4-yl)-cyclopropanecarboxylic acid]: in assay [1], the “collagen concentration in broncheoalveolar lavage fluid (BALF)” value is listed as “significantly reduced” and the “total protein concentration in broncheoalveolar lavage fluid (BALF)” value is “significantly reduced”.
For `Cc1noc(-c2ccc(-c3ccc(C4(C(=O)O)CC4)cc3)cc2)c1Nc1cncc(-c2cccc(F)c2Cl)c1` [Compound 82, 1-(4′-{4-[5-(2-Chloro-3-fluoro-phenyl)-pyridin-3-ylamino]-3-methyl-isoxazol-5-yl}-biphenyl-4-yl)-cyclopropanecarboxylic acid], the IC50 in assay [2] is below 100 nM.
`Cc1noc(-c2ccc(-c3ccc(C4(C(=O)O)CC4)cc3)cc2)c1Nc1cccc(-c2cccc(F)c2C)n1` [Compound 83, 1-(4′-{4-[6-(3-Fluoro-2-methyl-phenyl)-pyridin-2-ylamino]-3-methyl-isoxazol-5-yl}-biphenyl-4-yl)-cyclopropanecarboxylic acid]: in assay [2], the IC50 is below 100 nM.
Consider `Cc1noc(-c2ccc(-c3ccc(C4(C(=O)O)CC4)cc3)cc2)c1Nc1cccc(-c2cccc(C(F)(F)F)c2Cl)n1` [Compound 84, 1-(4′-{4-[6-(2-Chloro-3-trifluoromethyl-phenyl)-pyridin-2-ylamino]-3-methyl-isoxazol-5-yl}-biphenyl-4-yl)-cyclopropanecarboxylic acid], for which, at human LPA1, the IC50 fell in the range of 300 to 1000 nM.
Regarding `Cc1noc(-c2ccc(-c3ccc(C4(C(=O)NS(C)(=O)=O)CC4)cc3)cc2)c1Nc1cccc(Cc2ccccc2)n1` [Compound 95, N-(1-{4′-[4-(6-Benzyl-pyridin-2-ylamino)-3-methyl-isoxazol-5-yl]-biphenyl-4-yl}-cyclopropanecarbonyl)-methanesulfonamide], the IC50 in assay [2] is below 100 nM.
For `Cc1noc(-c2ccc(CSCCC(=O)O)cc2)c1NC(=O)OC(C)c1ccccc1Cl` (centres unmarked) [Ki16425], in assay [3], the “LPA-induced and ascites-induced invasion activity” value is recorded as “blocked”. In the assay with renal fibrosis, the “development of renal fibrosis in UUO mice” value is “closely resembled the LPA1 (−/−) mice”.

Usually IC50 stands for the concentration needed to halve the response being measured.
